Consider 10 molecules from ChEMBL document CHEMBL1201862, “PubChem BioAssay data set” (2004).

Molecules are shown by their SMILES.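 Step 1: Grow cells in 96-well plates. Step 2: Expose to compound for 48 hours at 5 concentrations. Step 3: Interpolate endpoints linearly; if unreached, use highest concentration. GI50 marks 50% less growth.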 The source made the active and inactive calls. No stated cut-off is given here; in the data, active = GI50 up to about 1.1 µM and inactive = higher.

Some test systems named below: OVCAR-8; U-251; HCT-116; SF-539; SK-OV-3; A549; MDA-MB-231; SW-620; BT-549; NCI-H23; HCC 2998; Malme-3M; MCF7; SN12C; SK-MEL-28; MDA-N; HT-29; LOX IMVI; NCI-H460; IGROV-1.
Experiment in all cases: inhibition of tumour cell growth, NCI panel, 48 h

For `CN(C)CCn1c(=O)c2ccc3c4c(nn3CCN(C)C)c3ccccc3n(c1=O)c24`, the GI50 in the assay on OVCAR-8 is < 0.01 µM (active); in the assay on U-251, 0.196 µM (active); with HCT-116, 0.193 µM (active); with SF-539, 0.571 µM (active); in the assay on SK-OV-3, 0.412 µM (active); in the assay with A549, 0.134 µM (active). The GI50 is 0.637 µM (active) with MDA-MB-231; < 0.138 µM (active) in the assay on SW-620; 1.84 µM (inactive) in the assay on BT-549; 0.449 µM (active) with NCI-H23; 0.129 µM (active) in the assay with HCC 2998; 0.887 µM (active) in the assay with Malme-3M. The GI50 in the assay with MCF7 was 0.188 µM (active); with SN12C, 0.148 µM (active); with SK-MEL-28 it was 1.85 µM (inactive); in the assay on MDA-N, 0.248 µM (active); in the assay on HT-29, < 0.123 µM (active); in the assay on LOX IMVI it was 0.214 µM (active). Also, the GI50 in the assay on NCI-H460 is < 0.122 µM (active).

For the molecule `CCOC(=O)C1=CNC2=N[C@H]3CCCC[C@@H]3N2C1=O`, the GI50 in the assay with OVCAR-8, with U-251, with HCT-116, in the assay on SF-539, with SK-OV-3 and in the assay with A549 was > 100 µM (inactive) in each case. Moreover, the GI50 in the assay with MDA-MB-231, in the assay with SW-620, in the assay with BT-549, in the assay on NCI-H23, in the assay with HCC 2998 and with Malme-3M was > 100 µM (inactive) in each case. The GI50 in the assay with MCF7, in the assay on SN12C, in the assay with SK-MEL-28, in the assay on IGROV-1, in the assay on MDA-N and in the assay on HT-29 was > 100 µM (inactive) throughout. The GI50 in the assay with LOX IMVI and in the assay with NCI-H460 was > 100 µM (inactive) in each case.

As to `CC(C)(C)OC(=O)N1CCc2c(n(C/C=C/c3ccccc3)[nH]c2=O)C1`, the GI50 in the assay with OVCAR-8, in the assay on U-251, in the assay with HCT-116, in the assay on SF-539, in the assay on SK-OV-3 and with A549 was > 100 µM (inactive) each time. Besides, the GI50 in the assay with MDA-MB-231 is > 100 µM (inactive); with SW-620 it was > 100 µM (inactive); with BT-549, > 100 µM (inactive); in the assay with NCI-H23, > 100 µM (inactive); in the assay on HCC 2998, > 100 µM (inactive); with Malme-3M it was > 75.2 µM (inactive). For the same molecule, the GI50 was 65.3 µM (inactive) with MCF7; > 100 µM (inactive) in the assay with SN12C; > 100 µM (inactive) in the assay on SK-MEL-28; > 100 µM (inactive) in the assay on IGROV-1; > 100 µM (inactive) in the assay on MDA-N; > 100 µM (inactive) in the assay with HT-29. For the same molecule, the GI50 in the assay on LOX IMVI and in the assay with NCI-H460 was > 100 µM (inactive) in each case.

With `CNC(=O)CC1NC(=O)c2csc(n2)-c2ccc(-c3nc(C4=NC(C(=O)N5CCCC5C(N)=O)CO4)cs3)nc2-c2csc(n2)-c2csc(n2)C(C(C)C)NC(=O)CNC(=O)c2csc(n2)C(C(C)C)NC(=O)c2nc1sc2C` (stereo not drawn), the GI50 in the assay with OVCAR-8 is 0.00485 µM (active); in the assay with U-251 it was 0.0025 µM (active); in the assay with HCT-116, 0.00114 µM (active); in the assay on SF-539, 0.00113 µM (active); with SK-OV-3, 0.0013 µM (active); with A549, 0.00724 µM (active). Besides, the GI50 in the assay with MDA-MB-231 was 0.0153 µM (active); with SW-620, 0.00962 µM (active); in the assay with BT-549 it was 0.0268 µM (active); with NCI-H23 it was 0.00239 µM (active); in the assay on HCC 2998, 0.00762 µM (active); in the assay with Malme-3M, > 25 µM (inactive). In addition, the GI50 was > 25 µM (inactive) in the assay with MCF7; 0.00398 µM (active) with SN12C; > 25 µM (inactive) in the assay with SK-MEL-28; 0.00175 µM (active) with IGROV-1; > 25 µM (inactive) in the assay with MDA-N; > 25 µM (inactive) in the assay with HT-29. Moreover, the values for the GI50 with LOX IMVI and in the assay on NCI-H460 were 0.00191 µM (active) and 0.00194 µM (active), respectively.

As for `O=C(C/C(=N/O)C(=O)NC1=C(Cl)C(=O)c2ccccc2C1=O)CC(c1ccccc1)c1c(O)c2ccccc2oc1=O` (stereo not drawn), the GI50 in the assay on OVCAR-8 was 10.8 µM (inactive); with U-251, 7.69 µM (inactive); in the assay on HCT-116 it was 4.51 µM (inactive); in the assay with SF-539, 8.11 µM (inactive); in the assay with SK-OV-3 it was 39 µM (inactive); in the assay with A549 it was 5.69 µM (inactive). For the same molecule, the GI50 in the assay on MDA-MB-231 was 4.57 µM (inactive); in the assay with SW-620 it was 6.58 µM (inactive); with BT-549, 16.4 µM (inactive); with NCI-H23, 3.63 µM (inactive); with HCC 2998, 11.9 µM (inactive); in the assay on Malme-3M, 2.08 µM (inactive). Also, the GI50 in the assay with MCF7 is 6.85 µM (inactive); with SN12C, 8.97 µM (inactive); in the assay with SK-MEL-28 it was 7.43 µM (inactive); with IGROV-1, 4.52 µM (inactive); in the assay on MDA-N, 1.72 µM (inactive); with HT-29, 4.84 µM (inactive). The GI50 with LOX IMVI is 3.39 µM (inactive); in the assay on NCI-H460 it was 3.15 µM (inactive).

`O=c1cnn(C2OC(C(O)CO)C(O)C2O)c(=O)[nH]1` (stereo not drawn): the GI50 in the assay with OVCAR-8, in the assay with U-251, in the assay on HCT-116, with SF-539, in the assay with SK-OV-3 and in the assay on A549 was > 100 µM (inactive) in each case. Also, the GI50 in the assay on MDA-MB-231, with SW-620, with BT-549, in the assay with NCI-H23, in the assay with HCC 2998 and in the assay with Malme-3M was > 100 µM (inactive) throughout. The GI50 with MCF7, with SN12C, in the assay on SK-MEL-28, in the assay with IGROV-1, in the assay with MDA-N and with HT-29 was > 100 µM (inactive) throughout. Further, the GI50 in the assay on LOX IMVI and in the assay with NCI-H460 was > 100 µM (inactive) each time.

For `CC(O)C1(CNc2cc(Cl)nc(N)n2)CCC1` (stereo not drawn), the GI50 in the assay on OVCAR-8, with U-251, in the assay with HCT-116, in the assay on SF-539, in the assay on SK-OV-3 and in the assay with A549 was > 100 µM (inactive) throughout. In addition, the GI50 in the assay on MDA-MB-231, with SW-620, in the assay on BT-549, with NCI-H23, in the assay with HCC 2998 and with Malme-3M was > 100 µM (inactive) in each case. In addition, the GI50 in the assay on MCF7, with SN12C, with SK-MEL-28, in the assay with IGROV-1, in the assay on MDA-N and in the assay with HT-29 was > 100 µM (inactive) in each case. Further, the GI50 with LOX IMVI and with NCI-H460 was > 100 µM (inactive) throughout.

As for `CCN(CC)CCOCC1CCCN2CCCCC12` (stereo not drawn), the GI50 in the assay on OVCAR-8, in the assay with U-251, in the assay with HCT-116, with SF-539, with SK-OV-3 and in the assay on A549 was > 100 µM (inactive) in each case. Besides, the GI50 with MDA-MB-231, in the assay on SW-620, in the assay on BT-549, with NCI-H23, in the assay with HCC 2998 and in the assay on Malme-3M was > 100 µM (inactive) each time. Also, the GI50 in the assay on MCF7, in the assay on SN12C, in the assay on SK-MEL-28, in the assay on MDA-N, with HT-29 and in the assay with LOX IMVI was > 100 µM (inactive) each time. Also, in the assay with NCI-H460, the GI50 was > 100 µM (inactive).

Consider `COc1cc2c(SCCN(C)C)nc3ccccc3c2c2ccccc12`, for which the GI50 with OVCAR-8 is 2.14 µM (inactive); in the assay on U-251, 1.87 µM (inactive); with HCT-116, 1.67 µM (inactive); in the assay on SF-539, 1.74 µM (inactive); in the assay on SK-OV-3, 10.4 µM (inactive); in the assay on A549 it was 1.77 µM (inactive). Also, the GI50 in the assay with MDA-MB-231 was 2.25 µM (inactive); in the assay with SW-620, 1.74 µM (inactive); with BT-549, 5.7 µM (inactive); with NCI-H23, 5.46 µM (inactive); with HCC 2998 it was 1.47 µM (inactive); in the assay on Malme-3M, 1.82 µM (inactive). Further, the GI50 is 1.66 µM (inactive) in the assay with MCF7; 2.52 µM (inactive) with SN12C; 1.78 µM (inactive) in the assay with SK-MEL-28; 1.3 µM (inactive) in the assay with IGROV-1; 2.19 µM (inactive) in the assay with MDA-N; 2.64 µM (inactive) in the assay with HT-29. In addition, the GI50 in the assay on LOX IMVI was 1.69 µM (inactive); with NCI-H460 it was 1.68 µM (inactive).

Turning to `COc1cc(/C=C2\CC3C4CC[C@H]5C[C@@H](O)CC[C@]5(C)C4CC[C@]3(C)\C2=N\O)cc(OC)c1OC` (stereo partly drawn), the GI50 was 17.3 µM (inactive) with OVCAR-8; 10.6 µM (inactive) with U-251; 6.19 µM (inactive) in the assay with HCT-116; 10.8 µM (inactive) in the assay with SF-539; 19.2 µM (inactive) in the assay with SK-OV-3; 7 µM (inactive) in the assay on A549. In addition, the GI50 was 14.3 µM (inactive) in the assay with MDA-MB-231; 18.2 µM (inactive) in the assay with SW-620; 14.9 µM (inactive) in the assay with BT-549; 15.6 µM (inactive) in the assay on NCI-H23; 10.1 µM (inactive) in the assay with HCC 2998; 16.7 µM (inactive) in the assay on Malme-3M. Moreover, the GI50 is 4.05 µM (inactive) with MCF7; 13.7 µM (inactive) in the assay on SN12C; 14.7 µM (inactive) in the assay with SK-MEL-28; 23 µM (inactive) in the assay with IGROV-1; 14.8 µM (inactive) in the assay with MDA-N; 7.36 µM (inactive) in the assay with HT-29. The GI50 in the assay on LOX IMVI is 11.5 µM (inactive); in the assay with NCI-H460 it was 8.05 µM (inactive).
